From PMC5431176, “Identification of a High-Affinity Pyruvate Receptor in Escherichia coli” (Scientific Reports, 2017) come the findings set out here.

The assay deals with T1, BtsS (YehU) (Escherichia coli, UniProt P0AD14).
T1 construct: full-length BtsS-6His in membrane vesicles
Nature of the assay: DRaCALA with […]-pyruvate on BtsS membrane vesicles, competition with cold pyruvate. The class given is binding.

T1 sequence (P0AD14 whole entry): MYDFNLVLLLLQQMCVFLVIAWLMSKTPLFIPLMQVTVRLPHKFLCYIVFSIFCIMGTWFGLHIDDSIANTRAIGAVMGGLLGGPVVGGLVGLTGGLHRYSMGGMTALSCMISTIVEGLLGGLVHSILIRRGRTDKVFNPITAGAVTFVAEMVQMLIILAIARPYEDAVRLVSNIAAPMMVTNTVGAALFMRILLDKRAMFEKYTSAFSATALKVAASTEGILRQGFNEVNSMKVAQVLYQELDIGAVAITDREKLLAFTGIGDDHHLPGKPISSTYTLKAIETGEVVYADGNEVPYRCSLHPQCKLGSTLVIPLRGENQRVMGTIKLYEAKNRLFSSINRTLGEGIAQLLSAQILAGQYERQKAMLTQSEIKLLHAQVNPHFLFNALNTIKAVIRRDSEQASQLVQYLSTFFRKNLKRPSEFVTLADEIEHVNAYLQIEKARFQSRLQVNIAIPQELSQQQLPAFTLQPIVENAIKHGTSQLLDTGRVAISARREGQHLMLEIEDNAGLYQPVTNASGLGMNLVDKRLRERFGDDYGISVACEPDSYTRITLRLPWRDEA

`CC(=O)C(=O)O` [pyruvate]: the Kd came to 58.6 ± 8.8 µM.
